Results reported in PMC6681393, “Intra-Nasally Administered Oligopeptide Lunasin Acts as a Possible Anti-Psychotic Agent in Mice Models” (Medicina, 2019).
“Also recorded” adds a separate entry of the source.

Tests used:
[1] = test system: PCP-induced hyperlocomotion in ICR mice; experiment: Open field locomotor activity, phencyclidine-induced hyperlocomotion; assay type: in vivo, male albino ICR mice; conditions: PCP 5 mg/kg i.p.; p < 0.0001 vs control; n = 7–8
5-HT2C receptor = conditions: cited from earlier work
Procedure: (§1) The aims of the present studies were: to test whether lunasin would show an influence on the dopaminergic system after intranasal administration, and to examine the effect(s) of lunasin on serotonin and glutamatergic systems, which could play an essential role in antipsychoti ... || The binding assay was performed by Eurofins Cerep (France) according to Bryant et al., 1996 [15]. Briefly, the binding of lunasin to 5-HT2A and 5-HT2C receptors was estimated on its ability to displace the specific binding of [^125I]DOI on cell membrane suspensions of HEK-293 cells expressing human recombinant 5-HT2A and 5-HT2C receptors. The radioligand [^125I]DOI has high affinity for 5-HT2A (Kd: 0.3 nM) and 5-HT2C (Kd: 0.9 nM) receptors. Lunasin was tested at concentrations of 1, 10 and 100 µM. The results were expressed as a percent of radioligand specific binding (n = 2).

5-HT2A receptor = conditions: cited from earlier work
Procedure: as §1

[2] = test system: brain monoamine levels, amphetamine-treated mice; experiment: Brain monoamines and metabolites, amphetamine-treated mice (UHPLC-TOF-MS); assay type: in vivo, male albino ICR mice; conditions: amphetamine 3 mg/kg i.p.
[3] = test system: amphetamine-induced hyperlocomotion in ICR mice; experiment: Open field locomotor activity, amphetamine-induced hyperlocomotion; assay type: in vivo, male albino ICR mice; conditions: amphetamine 3 mg/kg i.p.; p = 0.0008 vs control; n = 7–8
[4] = test system: DOI-induced hyperlocomotion in ICR mice; experiment: Open field locomotor activity, DOI-induced hyperlocomotion; assay type: in vivo, male albino ICR mice; conditions: DOI 3 mg/kg i.p.; p = 0.0033 vs control; n = 7–8
[5] = test system: brain monoamine levels, DOI-treated mice; experiment: Brain monoamines and metabolites, DOI-treated mice (UHPLC-TOF-MS); assay type: in vivo, male albino ICR mice; conditions: DOI 3 mg/kg i.p.
hyper-locomotion = conditions: published data; cited from earlier work
Procedure: The selected DOI dose in our behavioural studies was 3 mg/kg, which according to published data, corresponds to the dose range (0.625-5.0 mg/kg) that induces hyper-locomotion. […] These altered parameters ...

[6] = radioligand affinity quoted in method, Eurofins Cerep, ref Bryant et al., 1996 [15]
[7] = comparison for lunasin, abstract, source not printed there

Cl.c1ccc(C2(N3CCCCC3)CCCCC2)cc1 [PCP, 1-(1-phenylcyclohexyl)piperidine hydrochloride, reference compound]
effect on locomotion versus control [1]: induced hyperlocomotion

COc1cc(CC(C)N)c(OC)cc1I (centres unmarked) [[125I]DOI]
Kd (5-HT2C receptor; [6]): 0.9 nM | Kd (5-HT2A receptor; [6]): 0.3 nM

C[C@H](N)Cc1ccccc1 [Amphetamine, d-amphetamine, reference compound]
brain DOPAC concentration [2]: Neither lunasin per se nor amphetamine changed the DOPAC concentration | brain 5-HIAA level ([2]; p < 0.0001): increased brain serotonin and its metabolite 5-HIAA levels | brain dopamine level ([2]; p < 0.0001): markedly increased the dopamine level | brain noradrenaline level ([2]; p < 0.0001): augmented by amphetamine | brain serotonin level ([2]; p < 0.0001): increased brain serotonin and its metabolite 5-HIAA levels | brain HVA level ([2]; p = 0.0079): increased by amphetamine | increase in total walked distance versus control [3]: approximately 2 -fold

COc1cc(CC(C)N)c(OC)cc1I (centres unmarked) [DOI, 1-(2,5-dimethoxy-4-iodophenyl)-2-aminopropane, reference compound]
effect on locomotion versus control [4]: induced hyperactivity | brain 5-HIAA level [5]: up-regulated levels of serotonin and 5-HIAA; also recorded: considerable elevation of brain levels of serotonin and its metabolite 5-HIAA | brain dopamine concentration [5]: did not change dopamine brain concentrations; also recorded: did not change the dopamine concentration | brain serotonin level [5]: up-regulated levels of serotonin and 5-HIAA; also recorded: considerable elevation of brain levels of serotonin and its metabolite 5-HIAA | brain DOPAC concentration ([5]; p < 0.001): elevated; also recorded: increasing DOPAC levels | brain noradrenaline level ([5]; p < 0.05): decreased by DOI treatment; also recorded: lowered those of HVA and noradrenaline | brain HVA level ([5]; p = 0.0022): decreased by DOI treatment; also recorded: lowered those of HVA and noradrenaline | receptor affinity, concentration range (5-HT2C receptor; [7]): nM concentrations | receptor affinity, concentration range (5-HT2A receptor; [7]): nM concentrations | dose range that induces hyper-locomotion (hyper-locomotion): 0.625 to 5.0 mg/kg
